Where two headings read alike, the source gives them in different places.
Legend:
[1] = system: Aβ40 in conditioned medium of cells stably expressing Amyloid Precursor Protein (APP); experiment: In vitro BACE cell-based assay (Aβ40 sandwich ELISA); details: Homo sapiens
Outline: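 Aβ40 in supernatants was measured by time-resolved fluorescence sandwich ELISA using pAb40 capture and biotinylated 6E10 detection, with antibody incubations at 4 °C. Stable APP cells were exposed to compounds for 24 h in a 10-point series (top dose 100 or 10 µM, 0.1% DMSO). IC50 was fitted from the concentration-response.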

[2] = target: Beta Secretase enzyme (BACE) (Homo sapiens (Human), UniProt P56817); experiment: In vitro enzymatic BACE FRET assay; assay type: biochemical; details: read-out: BACE 1 FRET assay IC50
Sequence of Beta Secretase enzyme (BACE) (P56817 46-501): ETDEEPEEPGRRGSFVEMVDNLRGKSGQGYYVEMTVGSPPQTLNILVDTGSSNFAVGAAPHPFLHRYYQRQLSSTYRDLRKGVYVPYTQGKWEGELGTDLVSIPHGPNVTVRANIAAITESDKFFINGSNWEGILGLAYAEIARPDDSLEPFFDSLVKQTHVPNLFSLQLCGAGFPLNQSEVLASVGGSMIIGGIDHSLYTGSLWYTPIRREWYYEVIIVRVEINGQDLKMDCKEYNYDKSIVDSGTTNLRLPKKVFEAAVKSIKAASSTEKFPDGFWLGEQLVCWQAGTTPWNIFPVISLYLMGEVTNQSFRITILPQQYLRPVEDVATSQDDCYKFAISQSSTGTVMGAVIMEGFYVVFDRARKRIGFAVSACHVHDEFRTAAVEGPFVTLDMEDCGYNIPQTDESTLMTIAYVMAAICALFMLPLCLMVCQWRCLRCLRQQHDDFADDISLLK
Outline: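 A quenched fluorophore-peptide spanning the BACE cleavage site served as substrate at 50 nM, with one-hour incubation in pH 4.2 acetate buffer containing 100 uM genapol and 10% DMSO final. Fluorescence was measured after quenching with Tris to neutral pH.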

Cathepsin D (Cat D) = Cathepsin D (Cat D) (Homo sapiens (Human), UniProt P07339); experiment: In vitro enzymatic Cathepsin D (Cat D) FRET assay; assay type: biochemical; details: read-out: CatD IC50
Sequence of Cathepsin D (Cat D) (P07339 65-412, species assumed): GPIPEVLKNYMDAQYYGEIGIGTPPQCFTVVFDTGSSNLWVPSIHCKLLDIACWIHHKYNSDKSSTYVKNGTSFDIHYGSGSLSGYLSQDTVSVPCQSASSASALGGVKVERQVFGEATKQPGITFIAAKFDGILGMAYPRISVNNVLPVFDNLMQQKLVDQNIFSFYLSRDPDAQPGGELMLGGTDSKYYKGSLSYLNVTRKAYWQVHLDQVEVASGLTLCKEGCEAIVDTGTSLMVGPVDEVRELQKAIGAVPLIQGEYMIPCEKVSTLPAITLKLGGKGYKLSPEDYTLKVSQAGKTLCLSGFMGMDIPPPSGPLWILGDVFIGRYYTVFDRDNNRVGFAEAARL
Outline: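 CHO-expressed recombinant Cat D cleaves a fluorophore/quencher FRET peptide (20 nM) in 0.05 M citrate pH 3.5, 5 mM CHAPS, 10% DMSO final, over 1 h. Tris addition neutralizes pH to stop the reaction; fluorescence read at excitation 500 nm, emission 580 nm.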

[3] = HEK293, average IC50, HEK cells, read-out: HEK cell assay IC50
[4] = HEK293, average IC50, HEK cell assay, read-out: HEK cell assay IC50
[5] = average IC50, BACE enzyme assay
[6] = average IC50, cathepsin D enzyme assay
[7] = HEK293, HEK cells, average, read-out: HEK cell assay IC50
[8] = HEK293, read-out: HEK cell assay IC50

IC50 [1, 3] [µM]	IC50 ([2]; average IC50) [µM]	IC50 (Cathepsin D (Cat D); average IC50) [µM]	IC50 [1, 7] [µM]	IC50 ([2]; average) [µM]	IC50 (Cathepsin D (Cat D); average) [µM]	Compound	other results
0.0295	0.103	492				Cc1cc(OC(F)F)cnc1C(=O)Nc1ccc(F)c([C@]2(C)C[C@@H](C(F)(F)F)OC(N)=N2)n1 [Example 85, N-(6-((4S,6S)-2-amino-4-methyl-6-(trifluoromethyl)-5,6-dihydro-4H-1,3-oxazin-4-yl)-5-fluoropyridin-2-yl)-5-(difluoromethoxy)-3-methylpicolinamide]	
						C[C@@]1(c2cc(Nc3nccc4cc(Cl)cnc34)cc(F)c2F)C[C@@H](C(F)(F)F)OC(N)=N1 [Example 176, (4S,6S)-4-(5-((3-chloro-1,7-naphthyridin-8-yl)amino)-2,3-difluorophenyl)-4-methyl-6-(trifluoromethyl)-5,6-dihydro-4H-1,3-oxazin-2-amine]	IC50 [1, 4]: 0.102 µM; IC50 [2, 5]: 0.021 µM; IC50 (Cathepsin D (Cat D); [6]): 104 µM
			4.6	5.6	1130	NC1=N[C@](CF)(c2cc(C#Cc3cccc4cc[nH]c34)ccc2F)C[C@@H](C(F)(F)F)O1 [Example 133, (4S,6S)-4-(5-((1H-indol-7-yl)ethynyl)-2-fluorophenyl)-4-(fluoromethyl)-6-(trifluoromethyl)-5,6-dihydro-4H-1,3-oxazin-2-amine]	
0.203	0.018	> 400				NC1=N[C@](CF)(c2cc(Nc3nccc4cc(Cl)cnc34)ccc2F)C[C@@H](C(F)(F)F)O1 [Example 8, (4S,6S)-4-(5-((3-chloro-1,7-naphthyridin-8-yl)amino)-2-fluorophenyl)-4-(fluoromethyl)-6-(trifluoromethyl)-5,6-dihydro-4H-1,3-oxazin-2-amine]	
			0.012	0.033	1180	COc1cnc(C(=O)Nc2cc(F)c(F)c([C@]3(C)C[C@@H](C(F)(F)F)OC(N)=N3)c2)c(F)c1 [Example 239, N-(3-((4S,6S)-2-amino-4-methyl-6-(trifluoromethyl)-5,6-dihydro-4H-1,3-oxazin-4-yl)-4,5-difluorophenyl)-3-fluoro-5-methoxypicolinamide]	
			0.013	0.016	1710	COCc1cc(Cl)cnc1C(=O)Nc1cc(F)c(F)c([C@]2(C)C[C@@H](C(F)(F)F)OC(N)=N2)c1 [Example 199, N-(3-((4S,6S)-2-amino-4-methyl-6-(trifluoromethyl)-5,6-dihydro-4H-1,3-oxazin-4-yl)-4,5-difluorophenyl)-5-chloro-3-(methoxymethyl)picolinamide]	
						C[C@@]1(c2cc(Nc3nccc4cc(C#N)cnc34)cc(F)c2F)C[C@@H](C(F)(F)F)OC(N)=N1 [Example 180, 8-((3-((4S,6S)-2-amino-4-methyl-6-(trifluoromethyl)-5,6-dihydro-4H-1,3-oxazin-4-yl)-4,5-difluorophenyl)amino)-1,7-naphthyridine-3-carbonitrile]	IC50 [1, 4]: 0.036 µM; IC50 [2, 5]: 0.014 µM; IC50 (Cathepsin D (Cat D); [6]): > 400 µM
						N#Cc1ccc(C(=O)Nc2ccc(F)c([C@]3(CF)C[C@@H](C(F)(F)F)OC(N)=N3)n2)nc1 [Example 134, N-(6-((4S,6S)-2-amino-4-(fluoromethyl)-6-(trifluoromethyl)-5,6-dihydro-4H-1,3-oxazin-4-yl)-5-fluoropyridin-2-yl)-5-cyanopicolinamide]	IC50 [1, 4]: 0.055 µM; IC50 [2, 5]: 0.079 µM; IC50 (Cathepsin D (Cat D); [6]): > 400 µM
0.154	0.117	2370				NC1=N[C@](CF)(c2cccc(NC(=O)c3ccc(Cl)cn3)c2)C[C@@H](C(F)(F)F)O1 [Example 143, N-(3-((4S,6S)-2-amino-4-(fluoromethyl)-6-(trifluoromethyl)-5,6-dihydro-4H-1,3-oxazin-4-yl)phenyl)-5-chloropicolinamide]	
			0.0066	0.022	424	C[C@@]1(c2cc(NC(=O)c3ccc(Br)cn3)cc(F)c2F)C[C@@H](C(F)(F)F)OC(N)=N1 [Example 175, N-(3-((4S,6S)-2-amino-4-methyl-6-(trifluoromethyl)-5,6-dihydro-4H-1,3-oxazin-4-yl)-4,5-difluorophenyl)-5-bromopicolinamide]	
			0.035	0.015	622	COc1ccc(C(=O)Nc2cc(Cl)c(F)c([C@]3(C)C[C@@H](C(F)(F)F)OC(N)=N3)c2)nc1 [Example 209, N-(3-((4S,6S)-2-amino-4-methyl-6-(trifluoromethyl)-5,6-dihydro-4H-1,3-oxazin-4-yl)-5-chloro-4-fluorophenyl)-5-methoxypicolinamide]	
0.0248	0.0956	> 400				C[C@@]1(c2cc(Nc3nccc4cc(C#N)cnc34)cnc2F)C[C@@H](C(F)(F)F)OC(N)=N1 [Example 77, 8-((5-((4S,6S)-2-amino-4-methyl-6-(trifluoromethyl)-5,6-dihydro-4H-1,3-oxazin-4-yl)-6-fluoropyridin-3-yl)amino)-1,7-naphthyridine-3-carbonitrile]	
						C[C@@]1(c2cc(NC(=O)c3nn(C(F)F)cc3Cl)cnc2F)C[C@@H](C(F)(F)F)OC(N)=N1 [Example 72, N-(5-((4S,6S)-2-amino-4-methyl-6-(trifluoromethyl)-5,6-dihydro-4H-1,3-oxazin-4-yl)-6-fluoropyridin-3-yl)-4-chloro-1-(difluoromethyl)-1H-pyrazole-3-carboxamide]	IC50 [1, 4]: 0.031 µM; IC50 [2, 5]: 0.024 µM; IC50 (Cathepsin D (Cat D); [6]): 844 µM
0.0213	0.0461	> 400	0.018	0.075	1270	C[C@@]1(c2cc(NC(=O)c3cnc(C(F)F)cn3)cc(F)c2F)C[C@@H](C(F)(F)F)OC(N)=N1 [Example 193, N-(3-((4S,6S)-2-amino-4-methyl-6-(trifluoromethyl)-5,6-dihydro-4H-1,3-oxazin-4-yl)-4,5-difluorophenyl)-5-(difluoromethyl)pyrazine-2-carboxamide]	
			7.46	26.6	> 400	CNC(=O)c1ccc(C#Cc2ccc(F)c([C@]3(CF)C[C@@H](C(F)(F)F)OC(N)=N3)c2)nc1 [Example 126, 6-((3-((4S,6S)-2-amino-4-(fluoromethyl)-6-(trifluoromethyl)-5,6-dihydro-4H-1,3-oxazin-4-yl)-4-fluorophenyl)ethynyl)-N-methylnicotinamide]	
0.888	1.52	> 400				Cc1c(C(=O)Nc2ccc(F)c([C@]3(CF)C[C@@H](C(F)(F)F)OC(N)=N3)c2)nc2ccccn12 [Example 7, N-(3-((4S,6S)-2-amino-4-(fluoromethyl)-6-(trifluoromethyl)-5,6-dihydro-4H-1,3-oxazin-4-yl)-4-fluorophenyl)-3-methylimidazo[1,2-a]pyridine-2-carboxamide]	
0.106	0.0725	4060				NC1=N[C@](CF)(c2cc(NC(=O)c3ccc(F)cn3)ccc2F)C[C@@H](C(F)(F)F)O1 [Example 57, N-(3-((4S,6S)-2-amino-4-(fluoromethyl)-6-(trifluoromethyl)-5,6-dihydro-4H-1,3-oxazin-4-yl)-4-fluorophenyl)-5-fluoropicolinamide]	
0.0389	0.103	> 400				C[C@@]1(c2nc(NC(=O)c3ccc(Cl)cn3)ccc2F)C[C@@H](C(F)(F)F)OC(N)=N1 [Example 83, N-(6-((4S,6S)-2-amino-4-methyl-6-(trifluoromethyl)-5,6-dihydro-4H-1,3-oxazin-4-yl)-5-fluoropyridin-2-yl)-5-chloropicolinamide]	
0.023	0.0348	> 400				Cc1cc(C#N)cnc1C(=O)Nc1cnc(F)c([C@]2(C)C[C@@H](C(F)(F)F)OC(N)=N2)c1 [Example 67, N-(5-((4S,6S)-2-amino-4-methyl-6-(trifluoromethyl)-5,6-dihydro-4H-1,3-oxazin-4-yl)-6-fluoropyridin-3-yl)-5-cyano-3-methylpicolinamide]	
						NC1=N[C@](CF)(c2cc(Nc3nccc4nc(C(F)(F)F)cnc34)ccc2F)C[C@@H](C(F)(F)F)O1 [Example 18, (4S,6S)-4-(2-fluoro-5-((2-(trifluoromethyl)pyrido[3,4-b]pyrazin-5-yl)amino)phenyl)-4-(fluoromethyl)-6-(trifluoromethyl)-5,6-dihydro-4H-1,3-oxazin-2-amine]	IC50 [1, 4]: 0.336 µM; IC50 [2, 5]: 0.118 µM; IC50 (Cathepsin D (Cat D); [6]): > 14.8 µM

Compound	IC50 [1, 3] [µM]	IC50 ([2]; average IC50) [µM]	IC50 (Cathepsin D (Cat D); average IC50) [µM]	IC50 [1, 7] [µM]	IC50 ([2]; average) [µM]	IC50 (Cathepsin D (Cat D); average) [µM]	other results
Cc1cc(Cl)cnc1C(=O)Nc1ccc(F)c([C@]2(CF)C[C@@H](C(F)(F)F)OC(N)=N2)c1 [Example 4, N-(3-((4S,6S)-2-amino-4-(fluoromethyl)-6-(trifluoromethyl)-5,6-dihydro-4H-1,3-oxazin-4-yl)-4-fluorophenyl)-5-chloro-3-methylpicolinamide]		0.008	> 400				IC50 [1, 8]: 0.031 µM
C[C@@]1(c2cc(NC(=O)c3cnc(C(F)F)cn3)cc(Cl)c2F)C[C@@H](C(F)(F)F)OC(N)=N1 [Example 211, N-(3-((4S,6S)-2-amino-4-methyl-6-(trifluoromethyl)-5,6-dihydro-4H-1,3-oxazin-4-yl)-5-chloro-4-fluorophenyl)-5-(difluoromethyl)pyrazine-2-carboxamide]					0.062	604	IC50 [1, 8]: 0.047 µM
